Test results: the NIST ThermoML archive (doi:10.1016/j.fluid.2009.09.008)
± gives the expanded uncertainty stated by the source.

Details: Liquid, Ebulliometric method (Recirculating still)

vapor or sublimation pressure (263.15 K)	vapor or sublimation pressure (278.15 K)	vapor or sublimation pressure (293.15 K)	vapor or sublimation pressure (308.15 K)	vapor or sublimation pressure (323.15 K)	SMILES
345.9 ± 1.2 kPa	552.7 ± 1.2 kPa	839.7 ± 1.2 kPa	1217.2 ± 1.2 kPa	1714.5 ± 1.3 kPa	CCC [propane]
132.4 ± 1.2 kPa	235.2 ± 1.2 kPa	389.4 ± 1.2 kPa	608.3 ± 1.2 kPa	912.1 ± 1.2 kPa	FC(C(F)(F)F)C(F)(F)F [1,1,1,2,3,3,3-heptafluoropropane]

SMILES	vapor or sublimation pressure (263.15 K)	vapor or sublimation pressure (278.15 K)	vapor or sublimation pressure (293.15 K)	vapor or sublimation pressure (308.15 K)	vapor or sublimation pressure (323.15 K)
FC(F)C(F)(F)F [pentafluoroethane]	482.4 ± 1.2 kPa	782.1 ± 1.2 kPa	1205.6 ± 1.3 kPa	1773.2 ± 1.3 kPa	2531.1 ± 1.3 kPa
